Measurements: article PMC8391236, “Effect of Pterostilbene, a Natural Derivative of Resveratrol, in the Treatment of Colorectal Cancer through Top1/Tdp1-Mediated DNA Repair Pathway” (Cancers, 2021)

Columns and labels:
[1] = system: SW480; assay: Cell viability assay (CCK-8); format: cell-based; settings: Homo sapiens
Protocol: PTE or RE were dissolved in DMSO and diluted with culture medium to 1–100 μM. The final concentration of DMSO was less than 0.1%, and 0.1% DMSO as negative control. CPT, as Top1 inhibitor, was diluted to 0.5 μM [36, 37], and FM, as Tdp1 inhibitor was diluted to 25 μM [38]. Exponentially growing cells were seeded in 96-well plates (5 × 10^3 cells/well) for 12 h. Various drugs were added separately and incubated for 24, 48, and 72 h. Cell viability was determined by CCK-8 (Beyotime Biotechnology, Shanghai, China) assay. […]
The drug concentration required for inhibiting cell proliferation by 50% (IC50) was determined by interpolation from dose-response curves.

[2] = system: siRNA-Tdp1 CL187 cells; assay: Cell viability of Tdp1-silenced cells; format: cell-based, Human
Protocol: PTE or RE were dissolved in DMSO and diluted with culture medium to 1–100 μM. The final concentration of DMSO was less than 0.1%, and 0.1% DMSO as negative control. […] Exponentially growing cells were seeded in 96-well plates (5 × 10^3 cells/well) for 12 h. Various drugs were added separately and incubated for 24, 48, and 72 h. Cell viability was determined by CCK-8 (Beyotime Biotechnology, Shanghai, China) assay.

[3] = system: Tdp1-over CL187 cells; assay: Apoptosis by flow cytometry; format: cell-based, Human; settings: 48 h
Protocol: (§1) Exponentially growing CL187 cells were seeded in 6-well plates (1.2 × 10^6 cells/well) until a well was filled with cells. The RE or PTE at various concentrations were added separately into plate wells and incubated with cells for 48 h. The incubated cells were collected and treated by Annexin V-FITC/PI Apoptosis Detection Kit. The stained cells were analyzed with a flow cytometer (Becton-Dickinson, Franklin Lakes, NJ, USA), and data analyses were performed with BD Cell Quest^TM pro 6.0..

[4] = system: siRNA-Tdp1 CL187 cells; assay: Apoptosis by flow cytometry; format: cell-based, Human; settings: 48 h
Protocol: as §1

[5] = system: siRNA-Top1 CL187 cells; assay: Apoptosis by flow cytometry; format: cell-based, Human; settings: 48 h
Protocol: as §1

[6] = system: Top1 in CL187 cells; assay: Intracellular Top1 enzyme activity assay; format: cell-based, Human; settings: CL187 cells treated 6 h
Protocol: CL187 cells were treated with different concentrations of drugs for 6 h. The supernatant was discarded, and the cells were collected. The extracts of cytoplasm, mitochondria, and nucleus were obtained by the same method as described in Section 2.4.7. The protein concentration of each extract was detected by BCA kit. Enzyme activity reaction was carried out by using 125 ng super helical DNA (pHOT-1) and cell extract. The protein concentration of the extract was guaranteed to be the same in each group. The mixture solution of the pHOT-1 and the cell extract was added into the reaction buffer and incubated for 30 min at 37 °C. The reaction was terminated with loading buffer. The agarose gel electrophoresis was performed, and the images were collected.

[7] = system: subcutaneous CL187 xenograft; assay: Subcutaneous CL187 xenograft model; format: in vivo, BABLc/nude mice
Protocol: CL187 cell suspension was collected at 1 × 10^6 /mL, and 0.1 mL cell was inoculated into the right inguinal region of nude mice. The tumor was no metastasis. The diameter of the transplanted tumor in nude mice was measured with a vernier caliper. After 16-day inoculation (the tumor grew to 90 mm^3), the animals were randomly divided into 7 groups (6 mice per group). The drug was administered by intraperitoneal injection. Blank control group was injected with saline. […] According to the preliminary test results. […] Positive control group was injected with irinotecan (20 mg/kg) twice a week, During the experiment, the changes of body weight of nude mice were recorded, and the anti-tumor effect of the samples was dynamically investigated by measuring tumor diameter. On Day 31 post treatment, the nude mice were sacrificed, and the tumor blocks were removed surgically, weighed, and recorded.

[8] = system: Tdp1 mRNA; assay: qPCR of Tdp1 mRNA in cells; format: cell-based, Human; settings: 6 h
Protocol: CL187 cells were treated with different concentrations of RE and PTE for 6, 12, 24 h, collected, and added with TRIzol (Thermo Fisher Scientific, Waltham, MA, USA). RNA was precipitated by isopropyl alcohol and washed with 75% ethanol prepared from diethylpyrocarbonate (DEPC) water. The obtained total RNA was dissolved in DEPC water and reverse transcribed into cDNA by a Hifair Ⅲ 1st strand cDNA Synthesis SuperMix for qPCR Kit (Yeasen Biotech, Shanghai, China). The resultant cDNA was used as a template, and the primer sequences were (5′→3′): Top1: F: […], R: […]; Tdp1: F: ACCAGAGTTCAGGAAGAAG, R: TCATAGAGCAGCAGCATC. GAPDH: F: […], R: TCTTCCTCTTGTGCTCTTG. Transcription levels of Top1, Tdp1, and GAPDH genes were determined by qPCR. The qPCR was performed as follows: 95 °C for 10 min, 40 cycles of 95 °C for 10 s, and 60 °C for 30 s. The cycle threshold (Ct) value was determined, and the RQ value was calculated.

[9] = 25 mg/kg i.p. once a day, Day 31
[10] = 50 mg/kg i.p. once a day, Day 31
[11] = 100 mg/kg i.p. once a day, Day 31
[12] = 200 mg/kg i.p. once a day, Day 31

COc1cc(/C=C/c2ccc(O)cc2)cc(OC)c1 [PTE, 3,5-dimethoxy-4′-hydroxy-trans-stilbene]
IC50 ([1]; SW480, 24 h): 113 ± 24 µM | IC50 ([1]; SW480, 48 h): 35.7 ± 9.32 µM | IC50 ([1]; SW480, 72 h): 40.5 ± 10.8 µM | IC50 ([2]; Homo sapiens, 24 h, siRNA-Tdp1 CL187, 24 h): 74.2 ± 21.8 µM | IC50 ([2]; Homo sapiens, 48 h, siRNA-Tdp1 CL187, 48 h): 24.8 ± 4.62 µM | IC50 ([2]; Homo sapiens, 72 h, siRNA-Tdp1 CL187, 72 h): 18.4 ± 3.78 µM | IC50 ([2]; siRNA-Tdp1 CL187, 72 h): ~20 µM | cell apoptotic proportion ([3]; Tdp1-over CL187, 10 μM): 26.80% | cell apoptotic proportion ([3]; Tdp1-over CL187, 20 μM): 31.81% | cell apoptotic proportion ([3]; Tdp1-over CL187, 50 μM): 32.87% | cell apoptotic proportion ([4]; siRNA-Tdp1 CL187, 10 μM): 18.16% | cell apoptotic proportion ([4]; siRNA-Tdp1 CL187, 20 μM): 20.92% | cell apoptotic proportion ([4]; siRNA-Tdp1 CL187, 50 μM): 24.38% | cell apoptotic proportion ([5]; siRNA-Top1 CL187, 10 μM): 25.29% | cell apoptotic proportion ([5]; siRNA-Top1 CL187, 20 μM): 29.42% | cell apoptotic proportion ([5]; siRNA-Top1 CL187, 50 μM): 33.93% | concentration with the same inhibitory effect on intracellular Top1 enzyme activity ([6]; cell extracts + SC DNA): 20 µM | Top1 enzyme activity in mitochondria ([6]; CPT at 50 μM): significantly inhibited | Relative Tumor Proliferation Rate (T/C, %) [7, 9]: 53.53% | Tumor Inhibitory Rate (TGI, %) [7, 9]: 54.24 ± 4.80% | Tumor Volume [7, 9]: 1.725 ± 0.203 ** cm^3 | Tumor Weight [7, 9]: 1.60 ± 0.17 g | TGI ([7]; 25 mg/kg, 31 days): 54.24 ± 4.80% | Relative Tumor Proliferation Rate (T/C, %) [7, 10]: 39.56% | Tumor Volume [7, 10]: 1.243 ± 0.189 *** cm^3 | Tumor Weight [7, 10]: 1.39 ± 0.19 g | Relative Tumor Proliferation Rate (T/C, %) [7, 11]: 24.20% | Tumor Volume [7, 11]: 0.779 ± 0.168 *** cm^3 | Tumor Weight [7, 11]: 0.96 ± 0.11 g | Relative Tumor Proliferation Rate (T/C, %) [7, 12]: 20.71% | Tumor Volume [7, 12]: 0.623 ± 0.158 *** cm^3 | Tumor Weight [7, 12]: 0.73 ± 0.09 g | adverse reactions during the entire treatment process ([7]; subcutaneous CL187 xenograft nude mice, CPT-11 20 mg/kg, PTE 25-200 mg/kg i.p.): did not have the above-mentioned adverse reactions | Tdp1 mRNA expression ([8]; Tdp1-over CL187 cells): did not change significantly | Tdp1 mRNA expression ([8]; siRNA-Top1 CL187 cells): inhibited without obvious trend | Tdp1 mRNA expression ([8]; wild-type CL187 cells): significantly inhibited
